Reference: patent US6696480B2, “Upregulation of type III endothelial cell nitric oxide synthase by agents that disrupt actin cytoskeletal organization” (Brigham and Women's Hospital, Inc., priority 1998, dated 2004)
Where “and” joins values, the source holds several entries; their conditions need not be identical. Equal values may be shown once. Read-outs that look alike come from different tables or passages of the source.

Experiments:
ecNOS [1] = assay: ecNOS activity, LNMA-inhibitable nitrite production (modified nitrite assay); type: cell-based, human
ecNOS gene transcription = assay: Nuclear run-on assay of ecNOS gene transcription
[2] = system: cerebral ischemia, left middle cerebral artery (MCA) occlusion; assay: Murine model of cerebral vascular ischemia (MCA occlusion); type: in vivo, SV-129 mice
Description: Ischemia was produced by occluding the left middle cerebral artery (MCA) with a coated 8.0 nylon monofilament under anesthesia as described (Huang, Z et al., J Cereb Blood Flow Metab, 1996, 16:981-987, Huang, Z et al., Science, 1994, 265:1883-1885, Hara, H et al., J Cereb Blood Flow Metab, 1997, 1:515-526). Arterial blood pressure, heart rate, arterial oxygen pressure, and partial pressure of carbon dioxide were monitored as described (Huang, Z et al., J Cereb Blood Flow Metab, 1996, 16:981-987, Huang, Z et al., Science, 1994, 265:1883-1885, Hara, H et al., J Cereb Blood Flow Metab, 1997, 1:515-526). The filaments were withdrawn after 2 hours and after 24 h, mice were either sacrificed or tested for neurological deficits using a well-established, standardized, observer-blinded protocol as described (Huang, Z et al., J Cereb Blood Flow Metab, 1996, 16:981-987, Huang, Z et al., Science, 1994, 265:1883-1885, Hara, H et al., J Cereb Blood Flow Metab, 1997, 1:515-526). The motor deficit score range from 0 (no deficit) to 2 (complete deficit).
Brains were divided into five coronal 2-mm sections using a mouse brain matrix (RBM-200C, Activated Systems, Ann Arbor, Mich., USA). Infarction volume was quantitated with an image analysis system (M4, St. Catharines, Ontario, Canada) on 2% 2,3,5-triphenyltetrazolium chloride stained 2-mm slices. The levels of serum cholesterol, creatinine and transaminases were determined by the Tufts University Veterinary Diagnostic Laboratory (Grafton, Mass.).

ecNOS mRNA [3] = assay: ecNOS mRNA half-life in the presence of actinomycin D; type: cell-based, human; details: for half-life of ecNOS mRNA (t1/2) / ecNOS mRNA half-life: actinomycin D; for ecNOS mRNA half-life: simvastatin 1 mM
ecNOS mRNA [4] = assay: Northern blotting of ecNOS steady-state mRNA in endothelial cells; type: cell-based, human; set-up: ecNOS mRNA levels increased to / ecNOS mRNA levels, % of basal levels / effect on basal ecNOS mRNA levels: unit of the concentration uncertain; details: for increase in ecNOS mRNA levels compared to ox-LDL: co-treatment with ox-LDL, simvastatin 0.1 mmol/L; for ecNOS mRNA levels, % of basal levels: hypoxia + simvastatin (1 (unit uncertain))
Procedure: Equal amounts of total RNA (10-20 mg) were separated by 1.2% formaldehyde-agarose gel electrophoresis and transferred overnight onto Hybond nylon membranes. […] All Northern blots were subjected to stringent washing conditions (0.2× SSC/0.1% SDS at 65° C.) prior to autoradiography. RNA loading was determined by rehybridization with human GAPDH probe.

ecNOS protein = details: for increase in ecNOS protein levels compared to ox-LDL alone: co-treatment with ox-LDL, simvastatin 0.1 mmol/L; for ecNOS protein levels, % of basal levels: hypoxia (3% O2)
human endothelial cells = assay: Cellular viability (cell count, morphology, Trypan blue exclusion); details: simvastatin 0.01 to 0.1 mmol/L, lovastatin 10 mmol/L, up to 96 h
ecNOS [5] = assay: ecNOS activity from tissues, arginine to citrulline conversion in mouse aortae; type: in vivo, SV-129 mice; details: 2 mg/kg, 14 days
Procedure: The ecNOS activities in mice aortae and brains were measured by the conversion of [^3H]arginine to [^3H]citrulline in the presence and absence of LNMA (5 mM) as described earlier.

ecNOS mRNA [6] = assay: Quantitative RT-PCR of ecNOS mRNA in mouse aortae and brains; type: in vivo, SV-129 mice; details: dose-dependent, 14 days
Description: Total RNA from mouse aortae and brains was isolated by the guanidinium isothiocyanate method and reverse transcribed using oligo-dT (mRNA Preamplification reagents; Gibco BRL) and Taq ploymerase (Perkin-Elmer). One tenth of the sDNA was used as template for the PCR reaction. […] [NT] ID NO. 1) and 3'Primer: […] For amplification of glyceraldehyde 3-phosphate dehydrogenase (GAPDH), 0.1 nmol of the following primers amplifying a 452-bp fragment were used: 5'Primer: [NT] ID NO. 3) and 3' Primer: […] NO. 4). Denaturing was performed at 94° C. for 30 s, annealing at 60° C. for 30 s, and elongation at 72° C. for 60 s.

[7] = ox-LDL + simvastatin 0.1 mmol/L
[8] = simvastatin 1 mM alone (20% O2)
[9] = wild-type mice, 2 mg/kg, 14 days

## CCC(C)(C)C(=O)O[C@H]1C[C@@H](C)C=C2C=C[C@H](C)[C@H](CC[C@@H]3C[C@@H](O)CC(=O)O3)[C@H]21 [simvastatin]
ecNOS [1]; [7]
  decrease in ecNOS activity compared to untreated cells: 28±3%
  ecNOS-dependent nitrite production: 6.4±0.3 nmol/500,000 cells/24 h
ecNOS [1]; ox-LDL + simvastatin 1 mmol/L
  ecNOS-dependent nitrite production: 12.8±2.7 nmol/500,000 cells/24 h
  increase in ecNOS activity compared to baseline: 45±6%
ecNOS [1]; [8]
  nitrite production: 30±6.5 nmol/500,000 cells/24 h
  upregulation of nitrite production: 5 fold
ecNOS [1]; simvastatin 1 mM, 3% O2, 24 h
  increase in ecNOS activity over basal activity: 3 fold
  nitrite production: 18±5.0 nmol/500,000 cells/24 h
ecNOS gene transcription; hypoxia + simvastatin 1 mM
  decrease in ecNOS gene transcription: 83±6%
ecNOS gene transcription; simvastatin alone, normoxic condition
  increase in ecNOS gene transcription: 20±5%
[2]; 2 mg/kg
  increase in cerebral blood flow over basal values: 23%
[2]; 2 mg/kg, 14 days
  improvement of neurological motor deficit score compared to controls: ~2 fold
[2]; 2 mg/kg, 14 days, 2 h MCA occlusion, 22 hours of reperfusion, score 0 to 2
  neurological motor deficit score: 0.8±0.2
[2]; 20 mg/kg
  increase in cerebral blood flow over basal values: 35%
[2]; mouse, in vivo
  persistence of the effect on cerebral infarct size: up to 3 days
[2]; [9]
  cerebral infarct size: 73.8±8.5 mm3
  smaller cerebral infarct sizes compared to untreated animals: 25%
ecNOS mRNA [3]; ox-LDL + simvastatin 0.1 mmol/L, versus ox-LDL
  prolongation of ecNOS mRNA half-life: 1.6 fold
ecNOS mRNA [3]; [7]
  half-life of ecNOS mRNA (t1/2): 22 ± 3 h
ecNOS mRNA [3]; hypoxic
  ecNOS mRNA half-life: 38 ± 4 h
ecNOS mRNA [3]; normoxic
  ecNOS mRNA half-life: 46 ± 4 h
ecNOS mRNA [3]; simvastatin alone
  prolongation of ecNOS mRNA half-life over baseline: 1.3 fold
  half-life of ecNOS mRNA (t1/2): 43 ± 4 h
ecNOS mRNA [4]; 48 h
  increase in ecNOS mRNA levels compared to ox-LDL: 6.3 fold
  ecNOS mRNA levels, % of basal levels: 530±30%
ecNOS mRNA [4]; 72 h
  increase in ecNOS mRNA levels compared to ox-LDL: 14.5 fold
ecNOS mRNA [4]; 24 h
  ecNOS mRNA levels, % of basal levels: 195±12%
ecNOS mRNA [4]; simvastatin (1 (unit uncertain)) alone, normoxia
  ecNOS mRNA levels increased to: 340±24%
ecNOS protein; 24 h
  increase in ecNOS protein levels compared to ox-LDL alone: 1.3 fold
ecNOS protein; 72 h
  increase in ecNOS protein levels compared to ox-LDL alone: 3.3 fold
ecNOS protein; 96 h
  increase in ecNOS protein levels compared to ox-LDL alone: 8.9 fold
ecNOS protein; 48 h, simvastatin 1 mM
  ecNOS protein levels, % of basal levels: 159±13%
ecNOS protein; 48 h, simvastatin 10 mM
  ecNOS protein levels, % of basal levels: 223±21%
ecNOS protein; not chemically-activated statin (10)
  effect on ecNOS expression: no effect
ecNOS protein; ox-LDL + simvastatin 0.01 mmol/L, 48 h
  decrease in ecNOS protein: 57%±8%
ecNOS protein; ox-LDL + simvastatin 0.1 mmol/L, 24 h
  decrease in ecNOS protein level: 15% (2%
ecNOS protein; ox-LDL + simvastatin 0.1 mmol/L, 48 h
  decrease in ecNOS protein: 4%±7%
ecNOS protein; ox-LDL + simvastatin 0.1 mmol/L, 72 h
  ecNOS protein levels increased above basal expression: 110% (6%
ecNOS protein; ox-LDL + simvastatin 0.1 mmol/L, 96 h
  ecNOS protein levels increased above basal expression: 124% (6%
ecNOS protein; ox-LDL + simvastatin 1 mmol/L, 48 h
  ecNOS protein levels above baseline: 146%±9% and 150% (8%
ecNOS protein; simvastatin alone (1)
  upregulation of ecNOS expression: 2.9 fold
Human endothelial cells
  noticeable adverse effects on human endothelial cell: Neither simvastatin (0.01 to 0.1 mmol/L) nor lovastatin (10 mmol/L) produced any noticeable adverse effects
ecNOS [5]
  ecNOS activity in aortae: 0.39±0.09 U/mg protein
ecNOS mRNA [6]
  increase of ecNOS message compared to that of GAPDH in aortae: 3 fold
